Measured values: US20050004138A1 (Pfizer Inc, priority 2003, published 2005)

Tests used:
Specific Phobia = test: Treatment of subjects diagnosed with Specific Phobia; assay type: in vivo, human; details: subjects aged 18 to 55 years with Specific Phobia; about 40 to about 200 mg/day
Social Phobia = test: Treatment of subjects diagnosed with Social Phobia; assay type: in vivo, human; details: subjects aged 18 to 55 years with Social Phobia; about 40 to about 200 mg/day

O=C1Cc2cc(CCN3CCN(c4nsc5ccccc45)CC3)c(Cl)cc2N1 [Ziprasidone, 5-(2-(4-(1,2-benzisothiazol-3-yl)piperazinyl)ethyl)chlorooxindole]
tolerability / side effects (Specific Phobia): well tolerated
tolerability / side effects (Social Phobia): well tolerated
